According to paper PMC2691833 (Nucleic Acids Research, 2009):

Biological target: T1, EcoR124I holoenzyme (Escherichia coli, UniProt P10486)
T1 sequence (P10486 1-1038): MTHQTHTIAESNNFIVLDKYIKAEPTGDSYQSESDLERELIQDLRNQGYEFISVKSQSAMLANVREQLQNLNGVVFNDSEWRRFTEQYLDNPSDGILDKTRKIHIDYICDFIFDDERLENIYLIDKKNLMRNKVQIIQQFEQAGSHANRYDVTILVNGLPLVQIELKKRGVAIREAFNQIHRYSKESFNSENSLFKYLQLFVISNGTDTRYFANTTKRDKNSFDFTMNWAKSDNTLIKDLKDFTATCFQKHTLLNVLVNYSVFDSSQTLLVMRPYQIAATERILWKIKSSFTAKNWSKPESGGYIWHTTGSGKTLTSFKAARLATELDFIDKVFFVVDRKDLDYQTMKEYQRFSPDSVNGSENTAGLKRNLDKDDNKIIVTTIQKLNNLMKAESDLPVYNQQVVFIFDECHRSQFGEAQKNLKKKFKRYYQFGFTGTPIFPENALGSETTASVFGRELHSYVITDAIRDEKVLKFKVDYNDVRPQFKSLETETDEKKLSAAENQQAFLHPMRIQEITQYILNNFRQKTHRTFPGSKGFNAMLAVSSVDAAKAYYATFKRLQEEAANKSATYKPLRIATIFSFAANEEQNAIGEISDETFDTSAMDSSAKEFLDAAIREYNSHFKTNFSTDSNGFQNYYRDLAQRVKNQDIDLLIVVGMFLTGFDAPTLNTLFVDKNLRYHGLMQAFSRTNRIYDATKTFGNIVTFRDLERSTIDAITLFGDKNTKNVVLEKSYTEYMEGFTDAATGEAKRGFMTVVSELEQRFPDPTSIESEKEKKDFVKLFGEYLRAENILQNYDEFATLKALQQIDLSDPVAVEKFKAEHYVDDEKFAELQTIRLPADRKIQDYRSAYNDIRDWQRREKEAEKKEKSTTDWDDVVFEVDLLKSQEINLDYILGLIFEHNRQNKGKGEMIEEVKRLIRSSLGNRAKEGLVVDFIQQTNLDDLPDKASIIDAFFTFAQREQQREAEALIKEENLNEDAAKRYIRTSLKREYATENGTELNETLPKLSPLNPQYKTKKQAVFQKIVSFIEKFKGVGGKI
T1 sequence (P10484 1-520 partner): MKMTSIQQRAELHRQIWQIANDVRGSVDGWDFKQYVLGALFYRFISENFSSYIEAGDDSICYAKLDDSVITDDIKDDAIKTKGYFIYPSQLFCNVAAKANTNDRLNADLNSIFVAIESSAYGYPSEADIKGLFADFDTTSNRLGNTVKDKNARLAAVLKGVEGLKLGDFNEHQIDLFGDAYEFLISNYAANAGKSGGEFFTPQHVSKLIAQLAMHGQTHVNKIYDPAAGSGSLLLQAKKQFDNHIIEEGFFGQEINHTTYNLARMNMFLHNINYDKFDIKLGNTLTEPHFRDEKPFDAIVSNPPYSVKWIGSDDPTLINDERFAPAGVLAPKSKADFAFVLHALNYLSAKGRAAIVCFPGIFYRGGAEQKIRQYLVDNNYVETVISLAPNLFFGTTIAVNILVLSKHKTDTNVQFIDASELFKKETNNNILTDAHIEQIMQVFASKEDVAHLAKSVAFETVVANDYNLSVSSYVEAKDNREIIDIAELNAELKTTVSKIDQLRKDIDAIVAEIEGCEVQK
T1 sequence (P10485 1-404 partner): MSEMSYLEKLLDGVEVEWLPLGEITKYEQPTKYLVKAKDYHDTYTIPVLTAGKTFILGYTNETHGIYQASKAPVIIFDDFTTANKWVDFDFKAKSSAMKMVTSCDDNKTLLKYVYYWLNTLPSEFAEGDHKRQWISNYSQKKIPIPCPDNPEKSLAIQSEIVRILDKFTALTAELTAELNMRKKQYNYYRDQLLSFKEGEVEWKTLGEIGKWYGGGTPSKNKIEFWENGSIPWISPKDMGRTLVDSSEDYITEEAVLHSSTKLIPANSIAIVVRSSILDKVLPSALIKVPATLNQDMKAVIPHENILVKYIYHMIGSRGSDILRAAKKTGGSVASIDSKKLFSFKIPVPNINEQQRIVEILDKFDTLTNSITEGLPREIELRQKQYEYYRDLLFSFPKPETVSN
Conditions: 1 mM ATP, 5 mM Mg(OAc)2, negatively supercoiled R+- or 2R+-DNA, pH 7.5, 25 °C

Nc1ncnc2c1ncn2[C@@H]1O[C@H](COP(=O)(O)OP(=O)(O)OP(=O)(O)O)[C@@H](O)[C@H]1O [ATP]
continuous coupled spectrophotometric ATPase assay: as total protein concentration increases, the initial rates of ATP hydrolysis increase accordingly
